Laboratory results: PMC11973282, “RAS70 peptide targets multiforme glioblastoma by binding to the plasma membrane heat shock protein HSP70” (Frontiers in Oncology, 2025)

What was measured:
[1] = system: mHsp70-negative dermal fibroblasts; assay: Flow cytometry of FITC-labeled peptide internalization, negative control cells; type: cell-based
[2] = system: C6 (rat glioma) cells; assay: Flow cytometry of FITC-labeled peptide internalization, 24 h; type: cell-based; conditions: 50 μg/mL, M ± SE, 3 independent experiments
Description: (§1) The binding of the TKD-sCy5, RAS70-sCy5, and NGL-RGD-sCy5 peptides were analyzed using a CytoFLEX flow cytometer (Beckman Coulter, USA). A single cell suspension of C6, GL261, T98G, U87, U251, ANI, IBD, TMS (0.15×10^6 cells in mL^-1) were incubated for 30 minutes on ice in the dark with peptides in concentration of 75 μg/mL, and then washed with cold PBS solution. Cells without peptides were used as controls. To evaluate incorporation of the fluorescently-labeled peptides for longer period of co-incubation of 24 h cells (C6, GL261, U87, U251) were treated with FITC-labeled peptides, then washed with PBS and assessed on a CytoFLEX flow cytometer (Beckman Coulter, USA). Following FACS analysis cell pellet was further evaluated employing confocal microscopy Leica TCS SP8 (Leica Microsystems, Germany).
(§2) The incorporation of peptides over longer periods of co-incubation with brain tumor cells was additionally analyzed using a Cytomics FC500 flow cytometer (BeckmanCoulter, USA). Tumor cells (C6, GL261, U87, U251) were incubated with peptides (concentration 50 μg/mL) for 24 hours, washed with PBS. Internalization of FITC-labeled peptides was assessed by determining the mean fluorescence intensity (MFI). According to the study data ( Figure 6A ), it was shown that TKD peptide accumulated in all cell lines – 2120 ± 152 (C6), 2099 ± 107 (GL261), 2145 ± 189 (U87), 2373 ± 201 (U251) compared to the control scramble peptide (NGL) – 378 ± 48 (C6), 344 ± 57 (GL261), 301 ± 66 (U87), 313 ± 56 (U251) (P<0.001). […] Following FACS analysis the cell pellet was collected and evaluated for peptides cell uptake employing confocal microscopy ( Figure 6B ). The obtained microscopy data confirmed higher accumulation of RAS70 peptide in studied cell lines as compared to TKD or scramble peptides.
(§3) Figure 6 Evaluation of the mHsp70-targeting peptides internalization by glioma cells. (A) Flow cytometric evaluation of FITC-labeled peptide accumulation in tumor cell lines (rat glioma C6, mouse glioma GL261, human glioblastoma U87 and U251) after co-incubation for 24 hours. […] (B) Confocal microscopy assessment of FITC-labeled peptide accumulation in tumor cell lines (rat glioma C6, mouse glioma GL261, human glioblastoma U87 and U251) after co-incubation for 24 hours. […] (C) Analysis of the peptides uptake by human U87 glioblastoma cells following co-incubation for 24 hours.

[3] = system: GL261 (mouse glioma) cells; assay: as above; type: cell-based; conditions: 50 μg/mL, M ± SE, 3 independent experiments
Description: as §1, §2, §3

[4] = system: human glioblastoma U251 cells; assay: as above; type: cell-based; conditions: 50 μg/mL, M ± SE, 3 independent experiments
Description: as §1, §2, §3

[5] = system: U87 cells (lower chamber; HUVEC and astrocytes barrier); assay: Transwell BBB model, peptide passage and accumulation in tumor cells (also with antibody pre-treatment); type: in vitro ADME, human; conditions: transwell BBB model: HUVEC (5×10^5) and astrocytes (5×10^5) in upper chamber, U87 (1×10^4) in lower chamber; FITC-labeled peptide; 36 hours; confocal microscopy count; M ± SE, 3 independent experiments
Description: Fluorescently labeled cells were counted in the lower chamber.
Next, we assessed the mHsp70- and integrin (αvβ3, αvβ5)-mediated penetration of the TKD and RAS70 via the BBB ( Figure 9B ). […] When anti-αvβ3 and anti-αvβ5 mAbs were employed, we detected the decrease of NGL-RGD and RAS70 penetration via the BBB but not the NGL and TKD peptides.

[6] = system: human U87 glioblastoma cells; assay: Flow cytometry of FITC-labeled peptide internalization, 24 h (also with antibody pre-treatment); type: cell-based; conditions: for peptide internalization after pre-treatment with anti-Hsp70 antibodies: cells pre-treated with anti-Hsp70 mAbs SPA-810, SPA-815 (1:250); for peptide uptake after pre-treatment with both anti-Hsp70 and anti-αvβ3/-αvβ5 mAbs: combination of antibodies; for mean fluorescence intensity (MFI), internalization of FITC-labeled peptide: U87, 50 μg/mL, 24 hours, flow cytometry, M ± SE, 3 independent experiments
Description: as §1, §2, §3
To evaluate the mHsp70-mediated uptake of the peptides prior to co-incubation with either TKD or RAS70 peptides cells were pre-treated with anti-Hsp70 antibodies (SPA-810, SPA-815) that are known to target the membrane-bound chaperone on cancer cells ([37]). […] The tripeptide RGD (Arg-Gly-Asp) motif is known to bind to integrins, including αvβ3 and αvβ5 expressed on brain tumor cells and tumor endothelial cells ([38], [39]). […] As expected, we observed the decrease of NGL-RGD and RAS70 internalization by tumor cells but not of TKD or NGL peptides ( Figure 6C ).

**Q.** What does the source list for `CC(C)C[C@H](NC(=O)[C@H](CC(C)C)NC(=O)[C@H](CC(N)=O)NC(=O)[C@H](CC(N)=O)NC(=O)[C@H](CC(=O)O)NC(=O)[C@H](CCCCN)NC(=O)[C@@H](N)[C@@H](C)O)C(=O)NCC(=O)N[C@@H](CCCNC(=N)N)C(=O)N[C@@H](Cc1ccccc1)C(=O)N[C@@H](CCC(=O)O)C(=O)N[C@@H](CC(C)C)C(=O)N[C@@H](CO)C(=O)NCC(=O)NCCC(=O)N[C@@H](CCCNC(=N)N)C(=O)NCC(=O)N[C@@H](CC(=O)O)C(=O)O` [RAS70]?
**A.** accumulation of peptide in mHsp70-negative cells [1]: did not detect the accumulation; mean fluorescence intensity (MFI), internalization of FITC-labeled peptide [2]: 2671 ± 201; mean fluorescence intensity (MFI), internalization of FITC-labeled peptide [3]: 3012 ± 182; mean fluorescence intensity (MFI), internalization of FITC-labeled peptide [4]: 3678 ± 212; fluorescently labeled tumor cells in the lower chamber [5]: 578 ± 67 cells; peptide internalization after pre-treatment with anti-Hsp70 antibodies ([6]; U87, 24 hours): significant decrease; peptide internalization after pre-treatment with anti-αvβ3 and -αvβ5 antibodies ([6]; U87, 24 hours, cells pre-treated with anti-αvβ3 (LM609) and anti-αvβ5 (P1F6) mAbs (1:200)): decrease; peptide uptake after pre-treatment with both anti-Hsp70 and anti-αvβ3/-αvβ5 mAbs ([6]; U87, 24 hours): significant abrogation; mean fluorescence intensity (MFI), internalization of FITC-labeled peptide [6]: 2999 ± 209

**Q.** Which “accumulation of peptide in mHsp70-negative cells” value [1] does the source give for `CC(C)C[C@H](NC(=O)[C@H](CC(C)C)NC(=O)[C@H](CC(N)=O)NC(=O)[C@H](CC(N)=O)NC(=O)[C@H](CC(=O)O)NC(=O)[C@H](CCCCN)NC(=O)[C@@H](N)[C@@H](C)O)C(=O)NCC(=O)N[C@@H](CCCNC(=N)N)C(=O)N[C@@H](Cc1ccccc1)C(=O)N[C@@H](CCC(=O)O)C(=O)N[C@@H](CC(C)C)C(=O)N[C@@H](CO)C(=O)NCC(=O)O` [TKD] here?
**A.** Its value is “did not detect the accumulation”.

**Q.** What about the “mean fluorescence intensity (MFI), internalization of FITC-labeled peptide” value (“mean fluorescence intensity (MFI)” below) [2] of the same compound?
**A.** The value was 2120 ± 152.

**Q.** And the “mean fluorescence intensity (MFI)” value [3]?
**A.** The value was 2099 ± 107.

**Q.** And the “mean fluorescence intensity (MFI)” value [4]?
**A.** The value was 2373 ± 201.

**Q.** And the “fluorescently labeled tumor cells in the lower chamber” value [5]?
**A.** The value was 337 ± 38 cells.

**Q.** What about the “peptide internalization after pre-treatment with anti-Hsp70 antibodies” value ([6]; U87, 24 hours) of the same compound?
**A.** Its value is “significant decrease”.

**Q.** What about the “peptide uptake after pre-treatment with both anti-Hsp70 and anti-αvβ3/-αvβ5 mAbs” value ([6]; U87, 24 hours) of the same compound?
**A.** The value was “significant abrogation”.

**Q.** What about the “mean fluorescence intensity (MFI)” value [6] of the same compound?
**A.** The value was 2145 ± 189.
